Several values for one entry are separate records, joined by “and”; a condition that tells them apart may be missing. Identical values can stand only once. Entries after “also recorded” stand apart in the source; their conditions may differ.
Key:
ovariectomized DKO mice = format: in vivo
Text: (§1) Generation of DKO and cPR-DKO mice. DKO mice (Dicer1^flox/flox Pten flox/flox Amhr2^cre/+) were generated. A mouse line carrying Pgr^flox/flox, a conditional progesterone receptor (PR) gene (cPR), was provided by Drs. John Lydon and Francesco DeMayo. Conditional PR (Pgr^flox/flox)) mice were crossed with DKO mice, generating cPR- DKO mice (Pgr^flox/floxDicer1^flox/flox Pten^flox/flox Amhr2^cre/+). These Dicer1-Pten double-knockout (DKO) mice developed metastatic HGSCs arising from the fallopian tube with 100% penetrance. […] All DKO mice die of widespread peritoneal metastases. Besides mirroring the clinical features of human HGSC, these mouse HGSCs closely resemble human HGSC with histopathological, molecular, and genomic similarities. Mouse use and experiments were approved by the Institutional Animal Care and Use Committee (IACUC) at Indiana University School of Medicine.
Mouse bilateral ovariectomy. To examine the effect of ovary on HGSC development in the fallopian tube, both ovaries were surgically excised with the fallopian tubes remaining intact in DKO mice. The surgery was performed at 5-6 weeks of age, when there is no sign of tumors in the fallopian tube. These ovary-deficient DKO mice were then monitored for tumor development. Another set of DKO mice without surgery served as controls. Prior to surgery, DKO mice were anesthetized using Avertin (2,2,2,-tribromoethano) (125-250 mg/kg) (Sigma-Aldrich, St. Louis, Missouri, USA). For analgesia, Carprofen (5-10 mg/kg) (TCI America, Portland, OR, USA) was used a one dose pre-operatively and every 12 hours thereafter for 24-48 hours post-operatively.
(§2) Hormone pellet implantation. To evaluate the effects of steroid hormones on HGSC development, upon ovariectomy at 5-6 weeks of age, DKO mice were implanted subcutaneously with a pellet of 17-β estradiol (E2) (0.72 mg/90 days/mouse), progesterone (P4) (25 mg/90 days/mouse), or combined E2 (0.72 mg) & P4 (25 mg). Also, for shorter periods of P4 exposure, ovariectomized DKO mice were treated with a P4 pellet of 2 mg (1 week) or 6 mg (3 weeks). Another set of ovariectomized DKO mice implanted with a placebo (a pellet without hormone) served as controls. […] For a control group, DKO mice received a placebo pellet for mifepristone. After anesthesia, a pellet was inserted subcutaneously (SQ) after a single skin incision (0.5-1.0 cm) on the back near ovary location. The skin incision was closed with either monofilament suture or wound clips. The pellets were purchased from Innovative Research of America (Sarasota, FL, USA).
(§3) Statistical analysis. Statistical analyses were performed using a GraphPad Prism software (Version 8, GraphPad Software, Inc.). P values less than 0.05 were considered statistically significant. Log-rank test was used to compare survival distributions between different experimental groups of mice; Student's t-test to compare hormone levels between placebo-treated ovariectomized DKO mice and progesterone (P4)-treated ovariectomized DKO mice at 1 week, 3 weeks, and 3 months; Student's t-test to compare hormone levels between ovariectomized DKO mice (Ovex) and each experimental group of DKO mice; and Fisher's exact test to analyze PR expression in benign and malignant ovarian tumors.
Progesterone induces HGSC with metastatic potential in ovary-deficient DKO mice. Ovary-deficient DKO mice were treated with steroid hormones. […] Tumor development and mouse survival were then monitored.

[1] = Measurement of serum hormone levels (ELISA) in ovariectomized DKO mice; format: in vivo, mouse; details: P4-treated ovariectomized DKO mice
Method: Measurement of hormone levels. Blood samples were collected in serum separation tubes (BD Microtainer® Tube; 365967; BD Biosciences, San Jose, CA, USA) from DKO mice or ovariectomized DKO mice with or without hormone treatment. Serum was isolated by centrifugating blood at 14,000 rpm for 5 minutes at room temperature. Measurements of serum progesterone (P4), 17-β estradiol (E2), testosterone (T), follicle-stimulating hormone (FSH), and luteinizing hormone (LH) levels were performed using ELISA (enzyme-linked immunoassay: P4, E2, and T) or RIA (radioimmunoassay: FSH and LH) at the Center for Research Ligand Assay and Analysis Core in Reproduction at the University of Virginia.

[2] = test system: DKO mice (Dicer1-Pten double-knockout, HGSC model); experiment: Mifepristone pellet in DKO mice with intact ovaries: HGSC development and survival; format: in vivo, mouse; details: for median survival: DKO mice, range in brackets
Text: as §1, §2, §3
Progesterone generates its biological effects through the progesterone receptors (PR). Thus, to evaluate further whether progesterone signaling is critical to the development of HGSC with metastatic potential, DKO mice were treated with the PR antagonist mifepristone (RU486), an antiprogestin, that acts by binding to PR and inhibiting the transcription of its target genes. […] As expected, DKO mice treated with a placebo developed primary HGSC coupled with abundant peritoneal HGSC metastases (FIG. 1A-B). […] Histologically, the fallopian tubes from mifepristone-treated mice were composed of cystic and fibrous tissues as well as small segments of carcinoma cells in the stroma, accompanied by limited peritoneal metastasis (FIG. 1E-G).

[3] = mifepristone 3 mg/m for 3 months
[4] = mifepristone 16.7 mg/m for 6 months

C[C@]12CC[C@@H]3c4ccc(O)cc4CC[C@H]3[C@@H]1CC[C@@H]2O [E2, 17-β estradiol]
ovariectomized DKO mice with tumors or swelling in the uterus (ovariectomized DKO mice; female, DKO (Dicer1flox/flox Ptenflox/flox Amhr2cre/+), mouse, in vivo, 3 months): 90.9% | tumor phenotype in ovariectomized DKO mice (in words) (ovariectomized DKO mice; s.c. hormone pellet for 3 months): did not produce any tumors in the fallopian tube

CC(=O)[C@H]1CC[C@H]2[C@@H]3CCC4=CC(=O)CC[C@]4(C)[C@H]3CC[C@]12C [P4, progesterone]
hazard ratio (HR) of survival vs placebo-treated ovariectomized DKO mice (ovariectomized DKO mice; P4 25 mg pellet for 3 months): 3.01 | ovariectomized DKO mice that developed predominantly HGSC in the fallopian tube with widespread peritoneal metastases and ascites (ovariectomized DKO mice; P4 25 mg pellet for 3 months, 32/32 mice): 100% | median survival (ovariectomized DKO mice; ovariectomized DKO mice, s.c. hormone pellet for 3 months (P4 25 mg; E2 0.72 mg), range in brackets): 6.5 months of age | serum progesterone levels (in words) [1]: elevated serum progesterone levels

CC#C[C@]1(O)CC[C@H]2[C@@H]3CCC4=CC(=O)CCC4=C3[C@@H](c3ccc(N(C)C)cc3)C[C@@]21C [mifepristone, (8S,11R,13S,14S,17S)-11-[4-(dimethylamino)phenyl]-17-hydroxy-13-methyl-17-prop-1-ynyl-1,2,6,7,8,11,12,14,15,16-decahydrocyclopenta[a]phenanthren-3-one]
median survival ([2]; mifepristone 3 mg/m for 3 months, s.c. pellet from 5-6 weeks of age): 11.2 (5.9-21.3) months of age | median survival ([2]; mifepristone 16.7 mg/m for 6 months, s.c. pellets): 13.1 (6.6-24.3) months of age and 13.1 months of age | DKO mice not inhibited by mifepristone (HGSC development and peritoneal metastasis) ([2]; high dose, 16.7 mg/m for 6 m, 2/21 mice): 9.5% | DKO mice that still developed fallopian tube HGSC and widespread peritoneal metastases ([2]; low-dose group, 3 mg/m, 7/21 mice): 33.3% | hazard ratio (HR) of survival vs placebo-treated DKO mice [2, 3]: 0.40 | lived longer than DKO mice with placebo [2, 3]: ~4 months | effect on HGSC development and peritoneal metastasis (in words) ([2]; mifepristone 3 mg/m for 3 months vs placebo): developed little peritoneal metastasis; also recorded: effectively suppressed HGSC development in the fallopian tube and peritoneal metastasis | effect on HGSC development and peritoneal metastasis (in words) ([2]; mifepristone 16.7 mg/m for 6 m): effectively suppressed HGSC development and peritoneal metastasis | hazard ratio (HR) of survival vs placebo-treated DKO mice [2, 4]: 0.13 | lived longer than placebo-treated DKO mice [2, 4]: ~6 months
